# Measurements published in patent US4705796A, “Use of 3-N-phenylacetylamino-2,6-piperidinedione for treatment of neuropsychiatric disorders” (priority 1986, dated 1987).
# Experiments:
# human brain MAO A = target: T1, human brain MAO A (Homo sapiens, UniProt P21397); assay: MAO A activity in human brain homogenate (14C-5HT substrate); format: biochemical; conditions: substrate 14C-5HT; SD 15.1
# T1 construct: Human and rat caudate nuclei were homogenized in 0.32M sucrose; from tissue; host or cells: human caudate nucleus homogenate (1%)
# T1 sequence (P21397 1-527): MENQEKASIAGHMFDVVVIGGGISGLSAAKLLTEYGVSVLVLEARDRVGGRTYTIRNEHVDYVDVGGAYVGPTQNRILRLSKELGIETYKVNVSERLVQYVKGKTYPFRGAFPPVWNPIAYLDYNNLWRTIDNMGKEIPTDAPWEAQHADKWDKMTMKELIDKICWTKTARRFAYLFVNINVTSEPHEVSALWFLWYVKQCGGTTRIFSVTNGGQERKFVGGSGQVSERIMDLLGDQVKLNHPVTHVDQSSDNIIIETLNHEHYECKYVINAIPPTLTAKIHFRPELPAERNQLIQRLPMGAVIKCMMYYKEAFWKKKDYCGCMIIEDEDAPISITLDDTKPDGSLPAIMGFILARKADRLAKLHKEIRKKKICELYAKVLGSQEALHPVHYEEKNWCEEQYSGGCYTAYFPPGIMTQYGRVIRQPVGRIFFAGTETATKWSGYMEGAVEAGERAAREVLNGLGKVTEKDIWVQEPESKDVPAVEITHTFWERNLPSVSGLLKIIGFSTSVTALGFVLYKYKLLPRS
# cancer patients = conditions: cited from earlier work
# [1] = system: apomorphine and amphetamine induced locomotor changes; assay: Reversal of apomorphine and amphetamine induced locomotor changes in rats; format: in vivo, rat
# Excerpt: Thereafter, an analysis of a PAPD was undertaken in vitro and in vivo beginning with antipsychotic (neuroleptic) and antidepressant activity. […] The two distinct forms of the enzyme have been designated as type A (serotonin metabolizing and clorgyline sensitive) and type […] metabolizing and clorgyline insensitive). Based on the stereochemical model, it was predicted that PAPD's effect on MAO type B would be greater than its effect on MAO type A. In vitro data has substantiated this prediction.
# [2] = system: rat caudate nucleus (H^3-spiroperidol); assay: Displacement of H^3-spiroperidol from rat caudate nucleus; format: binding; conditions: in vitro
# [3] = system: PEA induced rotations in unilateral nigral lesioned rats; assay: Rotational behavior in unilateral substantia nigra 6-hydroxydopamine lesioned rats; format: in vivo, rat
# [4] = system: reserpine-induced akinesia; assay: PEA reversal of reserpine-induced akinesia in rats; format: in vivo, rat
# [5] = system: PEA induced stereotype behavior; assay: PEA induced stereotype behavior in rats; format: in vivo, rat
# human brain MAO B = target: T2, human brain MAO B (Homo sapiens, UniProt P27338); assay: MAO B activity in human brain homogenate (14C-PEA substrate); format: biochemical
# T2 construct: Human and rat caudate nuclei were homogenized in 0.32M sucrose; from tissue; host or cells: human caudate nucleus homogenate (1%)
# T2 sequence (P27338 1-520): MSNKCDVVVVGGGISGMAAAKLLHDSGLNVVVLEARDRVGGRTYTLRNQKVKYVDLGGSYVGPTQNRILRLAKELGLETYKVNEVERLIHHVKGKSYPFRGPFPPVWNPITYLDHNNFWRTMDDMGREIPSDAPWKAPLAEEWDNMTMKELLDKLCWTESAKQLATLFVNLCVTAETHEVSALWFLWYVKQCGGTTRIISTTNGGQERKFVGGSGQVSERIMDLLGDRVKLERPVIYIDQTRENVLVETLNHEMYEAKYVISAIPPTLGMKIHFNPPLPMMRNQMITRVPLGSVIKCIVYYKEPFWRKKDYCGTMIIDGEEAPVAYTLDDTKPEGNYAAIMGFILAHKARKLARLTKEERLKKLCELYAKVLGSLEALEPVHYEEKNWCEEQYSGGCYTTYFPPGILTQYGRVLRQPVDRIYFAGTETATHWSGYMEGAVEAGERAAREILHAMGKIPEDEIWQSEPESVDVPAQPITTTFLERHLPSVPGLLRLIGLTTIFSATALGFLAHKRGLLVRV
# human platelet MAO B = target: T3, human platelet MAO B (Homo sapiens, UniProt P27338); assay: Inhibition of platelet MAO B activity in vitro (human platelets); format: biochemical
# T3 construct: The platelet pellet was resuspended in 5.0 ml of 0.1 M phosphate buffer with pH 7.4 by sonication; from tissue; host or cells: human blood platelets from normal volunteers, sonicated
# T3 sequence (P27338 1-520): T2 sequence (P27338 1-520)
# rat brain MAO A = target: T4, rat brain MAO A (Rattus norvegicus, UniProt P21396); assay: MAO A activity in rat brain homogenate (14C-5HT substrate); format: biochemical; conditions: substrate 14C-5HT; SD ±6.0
# T4 construct: Human and rat caudate nuclei were homogenized in 0.32M sucrose; from tissue; host or cells: rat caudate nucleus homogenate (1%)
# T4 sequence (P21396 1-526): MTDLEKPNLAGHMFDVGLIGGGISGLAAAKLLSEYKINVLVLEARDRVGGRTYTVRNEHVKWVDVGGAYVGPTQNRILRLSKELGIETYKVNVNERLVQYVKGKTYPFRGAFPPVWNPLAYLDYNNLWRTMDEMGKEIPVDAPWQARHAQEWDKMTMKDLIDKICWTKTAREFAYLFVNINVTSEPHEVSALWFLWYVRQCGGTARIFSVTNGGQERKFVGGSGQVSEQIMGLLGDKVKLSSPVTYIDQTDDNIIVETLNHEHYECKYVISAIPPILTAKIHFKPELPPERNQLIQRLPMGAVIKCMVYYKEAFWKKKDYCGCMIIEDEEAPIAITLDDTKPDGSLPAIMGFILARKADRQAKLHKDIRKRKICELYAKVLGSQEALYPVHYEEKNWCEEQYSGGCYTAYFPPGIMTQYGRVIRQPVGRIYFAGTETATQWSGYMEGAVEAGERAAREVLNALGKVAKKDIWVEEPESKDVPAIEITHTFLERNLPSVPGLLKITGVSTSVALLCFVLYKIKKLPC
# rat brain MAO B = target: T5, rat brain MAO B (Rattus norvegicus, UniProt P19643); assay: MAO B activity in rat brain homogenate (14C-PEA substrate); format: biochemical
# T5 construct: Human and rat caudate nuclei were homogenized in 0.32M sucrose; from tissue; host or cells: rat caudate nucleus homogenate (1%)
# T5 sequence (P19643 1-520): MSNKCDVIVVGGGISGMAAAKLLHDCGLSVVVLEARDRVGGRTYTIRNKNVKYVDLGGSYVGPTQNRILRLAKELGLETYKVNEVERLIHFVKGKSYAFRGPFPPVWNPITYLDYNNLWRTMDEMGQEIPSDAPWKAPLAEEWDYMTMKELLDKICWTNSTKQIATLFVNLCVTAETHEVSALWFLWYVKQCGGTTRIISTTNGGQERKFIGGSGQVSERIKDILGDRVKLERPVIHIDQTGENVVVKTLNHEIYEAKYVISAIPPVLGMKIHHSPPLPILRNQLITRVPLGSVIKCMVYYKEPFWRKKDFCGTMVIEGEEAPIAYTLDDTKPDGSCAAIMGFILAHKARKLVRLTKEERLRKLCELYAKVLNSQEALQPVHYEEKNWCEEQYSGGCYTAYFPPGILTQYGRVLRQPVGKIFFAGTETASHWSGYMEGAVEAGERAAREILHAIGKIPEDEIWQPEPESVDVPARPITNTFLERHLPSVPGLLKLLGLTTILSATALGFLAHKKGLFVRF
# [6] = PAPD (200 mg/kg by context), 1 h prior to PEA
# [7] = clorgyline 5 mg/kg, 1 h prior to PEA
# [8] = deprenyl 10 mg/kg, 1 h prior to PEA
# [9] = pargyline 50 mg/kg, prior to PEA
smiles,measurement,setting,value
"O=C1CCC(NC(=O)Cc2ccccc2)C(=O)N1 (centres unmarked) [PAPD, 3-N-phenylacetylamino-2,6-piperidinedione]",IC50,human brain MAO A,139 µM
same,toxic effects,"cancer patients; human, in vivo",lack of toxic effects
same,mood,cancer patients; some cancer patients,elevation of mood
same,need for analgesia,cancer patients; some cancer patients,diminished need for analgesia
same,reversal of apomorphine and amphetamine induced locomotor changes,[1],inability to reverse apomorphine and amphetamine induced locomotor changes in rats
same,displacement of H^3-spiroperidol,[2],inability to displace H^3 -spiroperidol from rat caudate nucleus
same,number and duration of PEA rotations,"[3]; PAPD 200 mg/kg, 1 h before PEA",increased the number and duration of PEA rotations
same,number or duration of PEA rotations,"[3]; PAPD 50, 100 and 150 mg/kg, 1 h before PEA",did not affect the number or duration of PEA rotations
same,effect on duration of PEA's reversal of akinesia,"[4]; PAPD 200 mg/kg, 1 h prior to PEA",potentiated the duration of PEA's reversal of akinesia
same,effect on reversal induced by PEA,"[4]; PAPD 50 and 100 mg/kg, 1 h prior to PEA",antagonized the reversal induced by PEA
same,duration of activity with increased locomotion,[4]; [6],50 min
same,latency to reversal of akinesia,[4]; [6],less than five minutes
same,serotonin behaviors,"[4]; PAPD (200 mg/kg by context), interspersed with locomotor activity",headweaving and tremors
same,duration of stereotype behavior,[5]; 4 and 24 hours after PAPD (both groups),30 min
same,animals displaying forepaw padding/sniffing/headweaving,[5]; 4 hours after PAPD,50%
same,animals displaying forepaw padding/sniffing/headweaving,[5]; 24 hours after PAPD,66%
same,effect on PEA behavior,[5]; PAPD 50 and 100 mg/kg pretreatment,no effects on PEA behavior were noticed
same,animals with forepaw padding with continuous sniffing as well as headweaving,[5]; PAPD 200 and 400 mg/kg,100%
same,duration of stereotype behavior,[5]; PAPD 200 and 400 mg/kg,45 to 50 min
same,other stereotype behavior,[5]; PAPD 200 and 400 mg/kg,headbobbing
same,animals with forepaw padding with continuous sniffing as well as headweaving,[5]; PAPD one and two hours prior to PEA,100%
same,duration of stereotype behavior,[5]; PAPD one hour prior to PEA,45 min
same,duration of stereotype behavior,[5]; PAPD two hours prior to PEA,55 min
same,selectivity for type B MAO,human brain MAO B; human brain tissue,five times more selective
same,IC50,"human brain MAO B; substrate 14C-PEA, PAPD SD 3.7",19.9 µM
same,maximal inhibition of platelet MAO B,human platelet MAO B; above 1.0 mM,100%
same,"inhibition of platelet MAO, relative potency",human platelet MAO B; compared with PAPD / pargyline,less potent than pargyline
same,IC50,"human platelet MAO B; platelets from 6 subjects, duplicate assays, SD 34.5×10^-6",63.8 µM
same,inhibition with increasing concentration,human platelet MAO B; range of 0.1 to 1.0 mM,linear inhibition
same,platelet MAO inhibition,human platelet MAO B; standard platelet analysis,significant degree of MAO inhibition
same,IC50,rat brain MAO A,93.3 µM
same,inhibition of MAO type B versus MAO type A,"rat brain MAO B; in vitro and in vivo analyses, summary",inhibition of MAO type B greater than that for MAO type A
same,selectivity: concentrations inhibiting MAO B compared with MAO A,rat brain MAO B; rat brain,10 times less
same,IC50,"rat brain MAO B; substrate 14C-PEA, SD ±2.1",8 µM
"NCCc1ccccc1 [PEA, phenylethylamine]",duration of rotations,[3]; PEA 50 mg/kg alone,30 min
same,ipsilateral turning,"[3]; rat, in vivo",induced ipsilateral turning
same,duration of activity / reversal of akinesia,[4]; PEA 50 mg/kg i.p. alone,30 min
same,latency to reversal of akinesia,"[4]; PEA 50 mg/kg i.p. alone, reserpine 10 mg/kg i.p.",less than five minutes
same,stereotype behavior,[5]; PEA 50 mg/kg alone,no stereotype behavior was observed
"C#CCN(C)CCCOc1ccc(Cl)cc1Cl [clorgyline, reference compound]",activity compared with PEA control animals,[4]; [7],not as active as PEA control animals
same,duration of behavior,[4]; [7],45 min
same,latency to reversal of akinesia,[4]; [7],less than five minutes
same,serotonin type behavior,[4]; [7],"splayed hind legs, myoclonic jerks and headweaving"
same,forepaw padding syndrome,[5]; clorgyline 5 mg/kg,did not produce this syndrome
same,other stereotype behavior,[5]; clorgyline 5 mg/kg,stereotyped headbobbing
same,"animals with forepaw padding, sniffing, headweaving and retropulsion","[5]; clorgyline 10 mg/kg, 1 h prior to PEA",100%
same,duration of stereotype behavior,"[5]; clorgyline, both doses (5 and 10 mg/kg)",30 min
"C#CCN(C)C(C)Cc1ccccc1 (centres unmarked) [deprenyl, reference compound]",duration of PEA rotations,[3]; [8],increased the duration of PEA rotations
same,number of ipsilateral turns induced by PEA,"[3]; rat, in vivo",doubled the number of ipsilateral turns
same,animals with forepaw padding with continuous sniffing and headweaving,"[5]; deprenyl 5 mg/kg, 1 h prior to PEA",50%
same,animals with forepaw padding with continuous sniffing and headweaving,[5]; [8],100%
same,duration of stereotype behavior,"[5]; deprenyl, 1 h prior to PEA",60 min
same,other stereotype behavior,"[5]; deprenyl, 1 h prior to PEA",no other stereotype behavior observed
C#CCN(C)Cc1ccccc1 [pargyline],duration of activity with increased locomotion,[4]; [9],45 min
same,latency to reversal of akinesia,[4]; [9],less than five minutes
"NNCCc1ccccc1 [phenelzine, reference compound]",potency relative to PAPD,human brain MAO B,two orders of magnitude more potent than PAPD
